Experimental data reported in ChEMBL document CHEMBL1137027, “Stereoselective synthesis and preliminary evaluation of new D-3-heteroarylcarbonylalanines as ligands of the NMDA receptor” (Bioorg Med Chem Lett, 2004).

What was measured:
Glutamate NMDA receptor [1] = assay: Inhibition of [3H]MK-801 binding to NMDA receptor of adult Wistar rat brain cortical membranes: Range 50-500; type: cell membranes, Membrane
Glutamate NMDA receptor [2] = assay: Inhibition of [3H]MK-801 binding to NMDA receptor of adult Wistar rat brain cortical membranes; type: cell membranes, Membrane
Rattus norvegicus [3] = organism: Rattus norvegicus; assay: Percent inhibition of delayed neural death at concentration of 50 uM induced by glutamate and glycine in neocortical neurons of Wistar rat fetus; type: functional
Rattus norvegicus [4] = organism: Rattus norvegicus; assay: Percent inhibition of delayed neural death at concentration of 500 uM induced by glutamate and glycine in neocortical neurons of Wistar rat fetus; type: functional

In the case of `N[C@H](CC(=O)c1cccs1)C(=O)O`, the IC50 (Glutamate NMDA receptor [1]) is reported as less than 500 µM.
`N[C@H](CC(=O)c1ccccn1)C(=O)O` gave an IC50 (Glutamate NMDA receptor [2]) of roughly 300 µM, an Inhibition (Rattus norvegicus [3]) of 18.4% and an Inhibition (Rattus norvegicus [4]) of 60.3%.
